Experimental data: US20230312491A1, “N-SUBSTITUTED 4-(5-PHENYL-1,3,4-OXADIAZOL-2-YL)ANILINE FOR THE TREATMENT AND PROPHYLAXIS OF HEPATITIS B VIRUS INFECTION” (priority 2020, published 2023)

Experiments:
Assay type in all cases: cell-based
[1] = PHH natural infection assay, cytotoxicity (Cell Counting Kit-8); details: HBV-infected primary human hepatocytes, CCK8
Procedure: (§1) Detailed procedures regarding primary human hepatocyte (PHH) HBV natural infection assay are described as below. One tube of frozen PHH (10 million cells) is thawed in 37° C. water bath and then transferred to 20 mL of PHH thawing medium (Sigma, InVitroGRO HT Medium, Cat. S03319) with gently mixing. The cells were then centrifuged at […] for 5 min, the supernatant was discarded and the tube was refilled with 25 mL of PHH plating medium (Sigma, InVitroGRO CP Medium, Cat. S03317). The tube was shaken very gently to re-suspend all cells, and then 50 µl of cells were transferred to each well 384-well collagen I coated plate with appropriate liquid handling equipment, e.g. Integra VIAFLO384 or Agilent Bravo. The cells were then cultured for 24 hours in a cell incubator. For HBV infection, after PHH attachment on the culture plate, the plating medium was removed and replenished with PHH culture medium containing HBV virus. The PHH culture medium was prepared with Dulbecco’s Modified Eagle Medium (DMEM)/F12 (1: 1 in volume ratio) containing 10% fetal bovine serum (Gibco, Cat.10099141), 5 ng/mL human epidermal growth factor (Gibco, Cat.PHG0311L), 20 ng/mL dexamethasone (Sigma, Cat.D4902-100 mg), 250 ng/mL human recombinant insulin (Gibco, Cat.41400045) and 100 U/mL penicillin. HBV virus at 200 genome equivalent (GE) per cell with 4% PEG8000 (Sigma, Cat.P1458) containing culture medium were added to the PHH culture medium for infection. The cells were then cultured for 24 hours in cell incubator. Then the cell culture supernatant was removed. The HBV-infected PHH were cultured with sandwich culture method with PHH culture medium containing 1% DMSO and 0.25 mg/mL matrix gel for 72 hours. The supernatant was then refreshed with PHH culture medium containing different concentrations of testing compounds for two times with 72-hour interval. At the end of treatment, the supernatant was collected for viral markers measurements, including HBsAg, HBeAg, HBV DNA and cytotoxicity. HBsAg and HBeAg were detected using alphalisa method using their specific antibodies. For HBV DNA detection, HBV DNA Quantitative Fluorescence Diagnostic Kit (Sansure Biotech Inc.) was used following the manufacture’s protocol. Cytotoxicity was determined using Cell Counting Kit-8 (CCK8, Dojindo Molecular Technologies, Inc.).

HBeAg = experiment: PHH natural infection assay, HBeAg (alphalisa); details: Hepatitis B virus, Hepatocyte, 72 h, read-out: HBeAg IC50
Procedure: as §1
(§2) The compounds of the present invention were tested for their capacity to inhibit HBsAg and HBeAg as described herein.

HBsAg = experiment: PHH natural infection assay, HBsAg (alphalisa); details: Hepatitis B virus, Hepatocyte, 72 h, read-out: HBsAg IC50
Procedure: as §1, §2

SMILES: O=C(Nc1ccc(-c2nnc(-c3ccccc3)o2)cc1)C1CCCC1 [Example 7, N-[4-(5-phenyl-1,3,4-oxadiazol-2-yl)phenyl]cyclopentanecarboxamide]
- CC50 at 144 h [1]: > 100000 nM
- IC50 (HBeAg): 770 nM
- IC50 (HBsAg): 510 nM

SMILES: COCCC(=O)Nc1ccc(-c2nnc(-c3ccccc3)o2)cc1 [Example 5, 3-methoxy-N-[4-(5-phenyl-1,3,4-oxadiazol-2-yl)phenyl]propanamide]
- CC50 at 144 h [1]: > 100000 nM
- IC50 (HBeAg): 690 nM
- IC50 (HBsAg): 590 nM

SMILES: CN(C)c1ccc(-c2nnc(-c3ccccc3)o2)cc1 [Example 33, N,N-dimethyl-4-(5-phenyl-1,3,4-oxadiazol-2-yl)aniline]
- CC50 at 144 h [1]: > 100000 nM
- IC50 (HBeAg): 91600 nM
- IC50 (HBsAg): 7690 nM

SMILES: O=C(Nc1ccc(-c2nnc(-c3ccccc3)o2)cc1)c1ccncc1 [Example 19, N-[4-(5-phenyl-1,3,4-oxadiazol-2-yl)phenyl]pyridine-4-carboxamide]
- CC50 at 144 h [1]: > 100000 nM
- IC50 (HBeAg): 2800 nM
- IC50 (HBsAg): 4800 nM

SMILES: CCC(=O)Nc1ccc(-c2nnc(-c3ccccc3)o2)cc1 [Example 1, N-[4-(5-phenyl-1,3,4-oxadiazol-2-yl)phenyl]propanamide]
- CC50 at 144 h [1]: > 100000 nM
- IC50 (HBeAg): 4850 nM
- IC50 (HBsAg): 1190 nM

SMILES: Cc1cc(F)cc(C(=O)Nc2ccc(-c3nnc(-c4ccccc4)o3)cc2)c1 [Example 10, 3-fluoro-5-methyl-N-[4-(5-phenyl-1,3,4-oxadiazol-2-yl)phenyl]benzamide]
- CC50 at 144 h [1]: > 100000 nM
- IC50 (HBeAg): 2170 nM
- IC50 (HBsAg): 1610 nM

SMILES: CC(C)(C)CC(=O)Nc1ccc(-c2nnc(-c3ccccc3)o2)cc1 [Example 29, 3,3-dimethyl-N-[4-(5-phenyl-1,3,4-oxadiazol-2-yl)phenyl]butanamide]
- CC50 at 144 h [1]: > 100000 nM
- IC50 (HBeAg): 9570 nM
- IC50 (HBsAg): 5100 nM

SMILES: O=C(Nc1ccc(-c2nnc(-c3ccccc3)o2)cc1)c1ccccc1OC(F)(F)F [Example 14, N-[4-(5-phenyl-1,3,4-oxadiazol-2-yl)phenyl]-2-(trifluoromethoxy)benzamide]
- CC50 at 144 h [1]: > 100000 nM
- IC50 (HBeAg): 2880 nM
- IC50 (HBsAg): 3590 nM

SMILES: O=C(Nc1ccc(-c2nnc(-c3ccccc3)o2)cc1)c1ccccc1Cl [Example 9, 2-chloro-N-[4-(5-phenyl-1,3,4-oxadiazol-2-yl)phenyl]benzamide]
- CC50 at 144 h [1]: > 100000 nM
- IC50 (HBeAg): 1690 nM
- IC50 (HBsAg): 8230 nM

SMILES: O=C(Nc1ccc(-c2nnc(-c3ccccc3)o2)cc1)c1ccccc1F [Example 8, 2-fluoro-N-[4-(5-phenyl-1,3,4-oxadiazol-2-yl)phenyl]benzamide]
- CC50 at 144 h [1]: > 100000 nM
- IC50 (HBeAg): 5060 nM
- IC50 (HBsAg): 4170 nM

SMILES: COc1cc(-c2nnc(-c3ccccc3)o2)ccc1N [Example 31, 2-Methoxy-4-(5-phenyl-1,3,4-oxadiazol-2-yl)aniline]
- CC50 at 144 h [1]: > 100000 nM
- IC50 (HBeAg): 4170 nM
- IC50 (HBsAg): 1490 nM

SMILES: O=C(Nc1ccc(-c2nnc(-c3ccccc3)o2)cc1)c1ccnnc1 [Example 24, N-[4-(5-phenyl-1,3,4-oxadiazol-2-yl)phenyl]pyridazine-4-carboxamide]
- CC50 at 144 h [1]: > 100000 nM
- IC50 (HBeAg): 1600 nM
- IC50 (HBsAg): 1200 nM

SMILES: O=C(Nc1ccc(-c2nnc(-c3ccccc3)o2)cc1)c1ccccc1OC(F)F [Example 15, 2-(difluoromethoxy)-N-[4-(5-phenyl-1,3,4-oxadiazol-2-yl)phenyl]benzamide]
- CC50 at 144 h [1]: > 100000 nM
- IC50 (HBeAg): 1940 nM
- IC50 (HBsAg): 1940 nM

SMILES: O=C(Nc1ccc(-c2nnc(-c3ccccc3)o2)cc1)c1ccc(Cl)cn1 [Example 23, 5-chloro-N-[4-(5-phenyl-1,3,4-oxadiazol-2-yl)phenyl]pyridine-2-carboxamide]
- CC50 at 144 h [1]: > 100000 nM
- IC50 (HBeAg): 2120 nM
- IC50 (HBsAg): 1230 nM

SMILES: O=C(Nc1ccc(-c2nnc(-c3ccccc3)o2)cc1)c1cccnn1 [Example 25, N-[4-(5-phenyl-1,3,4-oxadiazol-2-yl)phenyl]pyridazine-3-carboxamide]
- CC50 at 144 h [1]: > 100000 nM
- IC50 (HBeAg): 1270 nM
- IC50 (HBsAg): 1090 nM

SMILES: CC(C)CC(=O)Nc1ccc(-c2nnc(-c3ccccc3)o2)cc1 [Example 4, 3-methyl-N-[4-(5-phenyl-1,3,4-oxadiazol-2-yl)phenyl]butanamide]
- CC50 at 144 h [1]: > 100000 nM
- IC50 (HBeAg): 3430 nM
- IC50 (HBsAg): 2800 nM

SMILES: Cc1cc(-c2nnc(-c3ccccc3)o2)ccc1N [Example 30, 2-methyl-4-(5-phenyl-1,3,4-oxadiazol-2-yl)aniline]
- CC50 at 144 h [1]: > 100000 nM
- IC50 (HBeAg): 3210 nM
- IC50 (HBsAg): 1430 nM

SMILES: O=C(Nc1ccc(-c2nnc(-c3ccccc3)o2)cc1)c1nccs1 [Example 27, N-[4-(5-phenyl-1,3,4-oxadiazol-2-yl)phenyl]thiazole-2-carboxamide]
- CC50 at 144 h [1]: > 100000 nM
- IC50 (HBeAg): 1710 nM
- IC50 (HBsAg): 1520 nM

SMILES: O=C(Nc1ccc(-c2nnc(-c3ccccc3)o2)cc1)c1ccc(F)cc1 [Example 12, 4-fluoro-N-[4-(5-phenyl-1,3,4-oxadiazol-2-yl)phenyl]benzamide]
- CC50 at 144 h [1]: > 100000 nM
- IC50 (HBeAg): 6330 nM
- IC50 (HBsAg): 6200 nM

SMILES: CC(C)(C)C(=O)Nc1ccc(-c2nnc(-c3ccccc3)o2)cc1 [Example 28, 2,2-dimethyl-N-[4-(5-phenyl-1,3,4-oxadiazol-2-yl)phenyl]propanamide]
- CC50 at 144 h [1]: > 100000 nM
- IC50 (HBeAg): 4230 nM
- IC50 (HBsAg): 7650 nM

SMILES: Nc1ccc(-c2nnc(-c3ccccc3)o2)cc1F [Example 32, 2-Fluoro-4-(5-phenyl-1,3,4-oxadiazol-2-yl)aniline]
- CC50 at 144 h [1]: > 100000 nM
- IC50 (HBeAg): 2810 nM
- IC50 (HBsAg): 2390 nM

SMILES: CC(C)C(=O)Nc1ccc(-c2nnc(-c3ccccc3)o2)cc1 [Example 6, 2-methyl-N-[4-(5-phenyl-1,3,4-oxadiazol-2-yl)phenyl]propanamide]
- CC50 at 144 h [1]: > 100000 nM
- IC50 (HBeAg): 2200 nM
- IC50 (HBsAg): 1330 nM

SMILES: N#Cc1ccc(C(=O)Nc2ccc(-c3nnc(-c4ccccc4)o3)cc2)cc1 [Example 18, 4-cyano-N-[4-(5-phenyl-1,3,4-oxadiazol-2-yl)phenyl]benzamide]
- CC50 at 144 h [1]: > 100000 nM
- IC50 (HBeAg): 2260 nM
- IC50 (HBsAg): 2540 nM

SMILES: COc1cc(C(=O)Nc2ccc(-c3nnc(-c4ccccc4)o3)cc2)ccn1 [Example 21, 2-methoxy-N-[4-(5-phenyl-1,3,4-oxadiazol-2-yl)phenyl]pyridine-4-carboxamide]
- CC50 at 144 h [1]: > 100000 nM
- IC50 (HBeAg): 1910 nM
- IC50 (HBsAg): 2000 nM

SMILES: O=C(Nc1ccc(-c2nnc(-c3ccccc3)o2)cc1)c1ncco1 [Example 26, N-[4-(5-phenyl-1,3,4-oxadiazol-2-yl)phenyl]oxazole-2-carboxamide]
- CC50 at 144 h [1]: > 100000 nM
- IC50 (HBeAg): 1420 nM
- IC50 (HBsAg): 910 nM

SMILES: O=C(Nc1ccc(-c2nnc(-c3ccccc3)o2)cc1)c1ccnc(Cl)c1 [Example 20, 2-chloro-N-[4-(5-phenyl-1,3,4-oxadiazol-2-yl)phenyl]pyridine-4-carboxamide]
- CC50 at 144 h [1]: > 100000 nM
- IC50 (HBeAg): 2560 nM
- IC50 (HBsAg): 1390 nM

SMILES: O=C(Nc1ccc(-c2nnc(-c3ccccc3)o2)cc1)c1ccc(Cl)cc1 [Example 13, 4-chloro-N-[4-(5-phenyl-1,3,4-oxadiazol-2-yl)phenyl]benzamide]
- CC50 at 144 h [1]: > 100000 nM
- IC50 (HBeAg): 4430 nM
- IC50 (HBsAg): 5620 nM

SMILES: O=C(Nc1ccc(-c2nnc(-c3ccccc3)o2)cc1)c1cccc(OC(F)F)c1 [Example 17, 3-(difluoromethoxy)-N-[4-(5-phenyl-1,3,4-oxadiazol-2-yl)phenyl]benzamide]
- CC50 at 144 h [1]: > 100000 nM
- IC50 (HBeAg): 2790 nM
- IC50 (HBsAg): 1460 nM
